Where “and” joins values, the source holds several entries; their conditions need not be identical. Equal values may be shown once. Read-outs that look alike come from different tables or passages of the source.
Experiments:
[1] = tested on: human osteosarcoma cell line SJSA-1; assay: Inhibition of proliferation of human osteosarcoma cell line SJSA-1 (DAPI staining, In Cell Analyzer); conditions: Homo sapiens, SJSA-1, 72 h, read-out: IC50 (nM), inhibitory activity on proliferation of human osteosarcoma cell line SJSA-1, SJSA-1, incubated 72 h
[2] = Pharmacokinetics in ICR mice after intravenous and intragastric administration; format: in vivo; conditions: for MRT last: read-out: MRT(0-t); for MRT inf: read-out: MRT(0-∞); for Vd: read-out: Vz
How it was run: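 Fasted male ICR mice, n=3/route; 2 mg/kg i.v., 5 mg/kg p.o. (gavage); vehicle 5% DMSO + 40% PEG400 + 55% of 10% HP-β-CD in saline. Plasma by LC-MS/MS, range 1-2000 ng/ml. AUC, t1/2, MRT, Cmax, Tmax, F, Vz, CL derived.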

[3] = target: T1, MDM2 (Homo sapiens, UniProt Q00987); assay: Inhibition test of MDM2-P53 (GST-MDM2, Biotin-P53, Anti-GST-Tb, SA-XL665); format: binding
T1 construct: made in house
How it was run: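 Binding was measured by TR-FRET with GST-MDM2 at 4 nM final in PBS with 0.1% BSA, 5 mM DTT and 1 mM AEBSF. Compounds were tested as twelve-point 5-fold dilutions and incubated with the detection mix for 90 min at 25 °C with shaking before plate-reader reading and curve fitting.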

[4] = ICR mice, IV 2 mg/kg, individual animal, 2 mg/kg
[5] = ICR mice, PO 5 mg/kg, individual animal, 5 mg/kg
[6] = male, ICR, mouse, plasma, iv, 2 mg/kg, ICR mice, IV 2 mg/kg, individual animal
[7] = male, ICR, mouse, plasma, iv, 2 mg/kg, ICR mice, IV 2 mg/kg, individual animal, read-out: AUC(0-t)
[8] = male, ICR, mouse, plasma, iv, 2 mg/kg, ICR mice, IV 2 mg/kg, individual animal, read-out: Cmax
[9] = male, ICR, mouse, plasma, iv, 2 mg/kg, ICR mice, IV 2 mg/kg, individual animal, read-out: t1/2 (converted)
[10] = male, ICR, mouse, plasma, iv, 2 mg/kg, ICR mice, IV 2 mg/kg, mean of 3 animals
[11] = male, ICR, mouse, plasma, iv, 2 mg/kg, ICR mice, IV 2 mg/kg, mean of 3 animals, read-out: AUC(0-t)
[12] = male, ICR, mouse, plasma, iv, 2 mg/kg, ICR mice, IV 2 mg/kg, mean of 3 animals, read-out: Cmax
[13] = male, ICR, mouse, plasma, iv, 2 mg/kg, ICR mice, IV 2 mg/kg, mean of 3 animals, read-out: Tmax
[14] = male, ICR, mouse, plasma, iv, 2 mg/kg, ICR mice, IV 2 mg/kg, mean of 3 animals, read-out: t1/2 (converted)
[15] = male, ICR, mouse, plasma, po, 5 mg/kg, ICR mice, PO 5 mg/kg, individual animal
[16] = male, ICR, mouse, plasma, po, 5 mg/kg, ICR mice, PO 5 mg/kg, individual animal, read-out: Cmax
[17] = male, ICR, mouse, plasma, po, 5 mg/kg, ICR mice, PO 5 mg/kg, individual animal, read-out: Tmax
[18] = male, ICR, mouse, plasma, po, 5 mg/kg, ICR mice, PO 5 mg/kg, individual animal, read-out: t1/2 (converted)
[19] = male, ICR, mouse, plasma, po, 5 mg/kg, ICR mice, PO 5 mg/kg, mean of 3 animals
[20] = male, ICR, mouse, plasma, po, 5 mg/kg, ICR mice, PO 5 mg/kg, mean of 3 animals, read-out: AUC(0-t)
[21] = male, ICR, mouse, plasma, po, 5 mg/kg, ICR mice, PO 5 mg/kg, mean of 3 animals, read-out: Cmax
[22] = male, ICR, mouse, plasma, po, 5 mg/kg, ICR mice, PO 5 mg/kg, mean of 3 animals, read-out: Tmax
[23] = male, ICR, mouse, plasma, po, 5 mg/kg, ICR mice, PO 5 mg/kg, mean of 3 animals, read-out: t1/2 (converted)
[24] = male, ICR, mouse, plasma, po, 5 mg/kg, oral intragastric administration 5 mg/kg, read-out: AUC0-t
[25] = male, ICR, mouse, plasma, po, 5 mg/kg, oral intragastric administration 5 mg/kg, read-out: half-life (converted)
[26] = male, mouse, plasma, ICR mice, PO 5 mg/kg vs IV 2 mg/kg, from mean values, read-out: F* (bioavailability)

T1 sequence (Q00987 whole entry): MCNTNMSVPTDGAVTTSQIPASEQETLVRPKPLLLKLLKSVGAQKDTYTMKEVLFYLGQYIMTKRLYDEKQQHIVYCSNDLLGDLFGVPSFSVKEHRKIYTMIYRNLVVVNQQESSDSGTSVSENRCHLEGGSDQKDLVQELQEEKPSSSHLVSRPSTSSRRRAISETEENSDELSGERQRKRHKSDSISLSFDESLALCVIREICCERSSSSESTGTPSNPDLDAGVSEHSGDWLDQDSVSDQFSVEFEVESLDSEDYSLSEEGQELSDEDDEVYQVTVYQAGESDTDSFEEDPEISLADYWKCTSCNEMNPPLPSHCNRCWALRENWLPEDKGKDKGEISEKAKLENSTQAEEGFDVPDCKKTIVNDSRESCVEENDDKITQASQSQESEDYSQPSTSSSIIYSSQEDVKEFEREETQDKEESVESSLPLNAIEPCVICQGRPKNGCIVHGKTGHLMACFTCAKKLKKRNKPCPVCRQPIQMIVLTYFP

COc1ccc(-c2nc3c(n2C(C)C)[C@@]2(C(=O)Nc4cc(Cl)ccc42)N(c2cc(Cl)cnc2C)C3=O)c(OC)c1 [Example S-61, (S)-6-chloro-5′-(5-chloro-2-methylpyridin-3-yl)-2′-(2,4-dimethoxyphenyl)-3′-isopropyl-3′H-spiro[dihydroindole-3,4′-pyrrolo[3,4-d]imidazole]-2,6′(5′H)-dione]
IC50 [1]: 5.5 nM
AUC(0-t) [2, 4]: 5346.76 ng·h/mL and 4640.74 ng·h/mL
AUC(0-∞) [2, 4]: 5483.62 ng·h/mL and 4724.28 ng·h/mL
CL [2, 4]: 6.08 mL/min/kg and 7.06 mL/min/kg
Cmax [2, 4]: 3244.96 ng/mL and 2994.43 ng/mL
MRT(0-t) [2, 4]: 1.26 h and 1.21 h
MRT(0-∞) [2, 4]: 1.42 h and 1.32 h
Vz [2, 4]: 0.60 L/kg and 0.67 L/kg
t1/2 [2, 4]: 1.15 h and 1.09 h
AUC(0-t) [2, 5]: 2462.65 ng·h/mL and 4960.30 ng·h/mL and 3162.34 ng·h/mL
AUC(0-∞) [2, 5]: 5500.70 ng·h/mL and 3530.81 ng·h/mL
Cmax [2, 5]: 2489.40 ng/mL and 1772.67 ng/mL
MRT(0-t) [2, 5]: 2.03 h and 1.91 h
MRT(0-∞) [2, 5]: 3.00 h
Tmax [2, 5]: 0.50 h
t1/2 [2, 5]: 2.71 h and 2.98 h
AUC(0-inf) [2, 6]: 3630 ng·h/mL
clearance [2, 6]: 9.19 mL/min/kg
AUC(0-t) [2, 7]: 3580 ng·h/mL
Cmax [2, 8]: 3250 ng/mL
MRT last [2, 6]: 0.99 h
MRT inf [2, 6]: 1.07 h
Tmax ([2]; male, ICR, mouse, plasma, iv, 2 mg/kg, ICR mice, IV 2 mg/kg, individual animal, read-out: Tmax): 0.08 h
Vd [2, 6]: 0.8 L/kg
half-life [2, 9]: 1 h
AUC(0-inf) [2, 10]: 4610 ng·h/mL
clearance [2, 10]: 7.44 mL/min/kg
AUC(0-t) [2, 11]: 4520 ng·h/mL
Cmax [2, 12]: 3160 ng/mL
MRT last [2, 10]: 1.15 h
MRT inf [2, 10]: 1.27 h
Tmax [2, 13]: 0.083 h
Vd [2, 10]: 0.69 L/kg
half-life [2, 14]: 1.08 h
AUC(0-inf) [2, 15]: 2770 ng·h/mL
Cmax [2, 16]: 2430 ng/mL
MRT last [2, 15]: 1.57 h
MRT inf [2, 15]: 2.85 h
Tmax [2, 17]: 0.25 h
half-life [2, 18]: 3.58 h
AUC(0-inf) [2, 19]: 3930 ng·h/mL
AUC(0-t) [2, 20]: 3530 ng·h/mL
Cmax [2, 21]: 2230 ng/mL
MRT last [2, 19]: 1.84 h
MRT inf [2, 19]: 2.95 h
Tmax [2, 22]: 0.33 h
half-life [2, 23]: 3.09 h
AUC(0-t) [2, 24]: 3530 ng·h/mL
half-life [2, 25]: 3.09 h
bioavailability [2, 26]: 31.2%
IC50 [3]: 1.31 nM

COc1cc(OC(C)C)ncc1-c1nc2c(n1C(C)C)[C@@]1(C(=O)Nc3cc(Cl)ccc31)N(c1cc(Cl)ccc1C)C2=O [Example S-69, (S)-6-chloro-5′-(5-chloro-2-methylphenyl)-2′-(6-isopropoxy-4-methoxypyridin-3-yl)-3′-isopropyl-3′H-spiro[dihydroindole-3,4′-pyrrolo[3,4-d]imidazole]-2,6′(5′H)-dione]
IC50 [1]: 2.29 nM
AUC(0-t) [2, 4]: 50006.21 ng·h/mL and 52203.96 ng·h/mL
AUC(0-∞) [2, 4]: 50659.35 ng·h/mL and 52314.11 ng·h/mL
CL [2, 4]: 0.66 mL/min/kg
Cmax [2, 4]: 5141.60 ng/mL and 6038.43 ng/mL
MRT(0-t) [2, 4]: 4.62 h and 4.30 h
MRT(0-∞) [2, 4]: 4.95 h and 4.35 h
Tmax [2, 4]: 0.50 h and 0.08 h
Vz [2, 4]: 0.23 L/kg
t1/2 [2, 4]: 4.02 h and 2.83 h
AUC(0-t) [2, 5]: 106563.84 ng·h/mL and 85266.27 ng·h/mL
AUC(0-∞) [2, 5]: 106654.00 ng·h/mL and 85298.58 ng·h/mL
Cmax [2, 5]: 10867.97 ng/mL and 11828.43 ng/mL
MRT(0-t) [2, 5]: 5.03 h and 4.46 h
MRT(0-∞) [2, 5]: 5.04 h and 4.47 h
t1/2 [2, 5]: 2.28 h and 2.03 h
AUC(0-inf) [2, 6]: 53200 ng·h/mL
clearance [2, 6]: 0.63 mL/min/kg
AUC(0-t) [2, 7]: 53100 ng·h/mL
Cmax [2, 8]: 5980 ng/mL
MRT last [2, 6]: 4.38 h
MRT inf [2, 6]: 4.44 h
Vd [2, 6]: 0.16 L/kg
half-life [2, 9]: 2.88 h
AUC(0-inf) [2, 10]: 52100 ng·h/mL
clearance [2, 10]: 0.64 mL/min/kg
AUC(0-t) [2, 11]: 51800 ng·h/mL
Cmax [2, 12]: 5720 ng/mL
MRT last [2, 10]: 4.43 h
MRT inf [2, 10]: 4.58 h
Tmax [2, 13]: 0.222 h
Vd [2, 10]: 0.18 L/kg
half-life [2, 14]: 3.24 h
AUC(0-inf) [2, 15]: 69300 ng·h/mL
AUC(0-t) ([2]; male, ICR, mouse, plasma, po, 5 mg/kg, ICR mice, PO 5 mg/kg, individual animal, read-out: AUC(0-t)): 69200 ng·h/mL
Cmax [2, 16]: 7630 ng/mL
MRT last [2, 15]: 4.92 h
MRT inf [2, 15]: 4.94 h
Tmax [2, 17]: 2 h
half-life [2, 18]: 2.24 h
AUC(0-inf) [2, 19]: 87100 ng·h/mL
AUC(0-t) [2, 20]: 87000 ng·h/mL
Cmax [2, 21]: 10100 ng/mL
MRT last [2, 19]: 4.8 h
MRT inf [2, 19]: 4.82 h
Tmax [2, 22]: 2 h
half-life [2, 23]: 2.18 h
AUC(0-t) [2, 24]: 87000 ng·h/mL
half-life [2, 25]: 2.18 h
bioavailability [2, 26]: 67.2%
IC50 [3]: 1.78 nM

CCOc1cc(OC)c(-c2nc3c(n2C(C)C)[C@@]2(C(=O)Nc4cc(Cl)ccc42)N(c2cc(Cl)ccc2C)C3=O)cn1 [Example S-72, (S)-6-chloro-5′-(5-chloro-2-methylphenyl)-2′-(6-ethoxy-4-methoxypyridin-3-yl)-3′-isopropyl-3′H-spiro[dihydroindole-3,4′-pyrrolo[3,4-d]imidazole]-2,6′(5′H)-dione]
IC50 [1]: 5.9 nM
AUC(0-t) [2, 4]: 11802.83 ng·h/mL and 14847.37 ng·h/mL
AUC(0-∞) [2, 4]: 12174.58 ng·h/mL and 17305.95 ng·h/mL
CL [2, 4]: 2.74 mL/min/kg and 1.93 mL/min/kg
Cmax [2, 4]: 4839.23 ng/mL and 3686.88 ng/mL
MRT(0-t) [2, 4]: 1.52 h and 1.96 h
MRT(0-∞) [2, 4]: 1.71 h and 2.98 h
Tmax [2, 4]: 0.08 h and 1.00 h
Vz [2, 4]: 0.29 L/kg and 0.36 L/kg
t1/2 [2, 4]: 1.23 h and 2.16 h
AUC(0-t) [2, 5]: 51286.19 ng·h/mL and 23996.12 ng·h/mL and 26941.23 ng·h/mL
AUC(0-∞) [2, 5]: 51351.03 ng·h/mL and 24161.28 ng·h/mL and 27586.31 ng·h/mL
Cmax [2, 5]: 7160.86 ng/mL and 6289.71 ng/mL
MRT(0-t) [2, 5]: 2.18 h and 2.66 h
MRT(0-∞) [2, 5]: 2.23 h and 2.84 h
Tmax [2, 5]: 1.00 h
t1/2 [2, 5]: 2.54 h and 1.13 h and 1.47 h
AUC(0-inf) [2, 6]: 11900 ng·h/mL
clearance [2, 6]: 2.8 mL/min/kg
AUC(0-t) [2, 7]: 11500 ng·h/mL
Cmax [2, 8]: 4630 ng/mL
MRT last [2, 6]: 1.53 h
MRT inf [2, 6]: 1.78 h
Vd [2, 6]: 0.34 L/kg
half-life [2, 9]: 1.39 h
AUC(0-inf) [2, 10]: 13800 ng·h/mL
clearance [2, 10]: 2.49 mL/min/kg
AUC(0-t) [2, 11]: 12700 ng·h/mL
Cmax [2, 12]: 4390 ng/mL
MRT last [2, 10]: 1.67 h
MRT inf [2, 10]: 2.16 h
Tmax [2, 13]: 0.389 h
Vd [2, 10]: 0.33 L/kg
half-life [2, 14]: 1.59 h
Cmax [2, 16]: 7870 ng/mL
MRT last [2, 15]: 3.95 h
MRT inf [2, 15]: 3.98 h
Tmax [2, 17]: 0.5 h
AUC(0-inf) [2, 19]: 34400 ng·h/mL
AUC(0-t) [2, 20]: 34100 ng·h/mL
Cmax [2, 21]: 7110 ng/mL
MRT last [2, 19]: 2.93 h
MRT inf [2, 19]: 3.01 h
Tmax [2, 22]: 0.67 h
half-life [2, 23]: 1.72 h
AUC(0-t) [2, 24]: 34100 ng·h/mL
half-life [2, 25]: 1.72 h
bioavailability ([2]; male, ICR, mouse, plasma, oral intragastric administration 5 mg/kg, read-out: bioavailability): 107%
bioavailability [2, 26]: 107%
IC50 [3]: 0.9 nM

Source: patent US11339171B2, “MDM2 inhibitors” (Gan & Lee Pharmaceuticals, priority 2017, dated 2022)
